These results are taken from patent publication US20230295096A1, “PYRAZOLE CARBOXAMIDE COMPOUNDS FOR TREATMENT OF HBV” (ASSEMBLY BIOSCIENCES, INC., priority 2020, published 2023).

In the test the test system is HBV. The test can be described thus: Viral load production from HepAD38 cells, qPCR of the HBV core sequence in supernatant. The format is cell-based. The settings on record: Hepatitis B virus, HePAD38, 120 h, HepAD38 cells, 5 days, HBV DNA in supernatant by qPCR; Table 1 ranges; read-out: Activity (viral load lowering EC50). The method, then:
HepAD38 cells grown in a T-150 flask (Corning, cat#: 430825) with Growth Medium (DMEM/F12 (1:1) (Hyclone, cat#: SH30023.02), 1X Pen/Strep (Invitrogen, cat#: 15140-122), 10% FBS (Tissue Culture Biologics, cat#: 101), 250 µg/mL G418 (Alfa Aesar, cat#: J62671), 1 µg/mL Tetracycline (Teknova, cat#: T3320)) were detached with 0.25% trypsin-EDTA (Invitrogen, cat#: 25200-056). Tetracycline-free treatment medium (15 mL DMEM/F12 (1:1) 1× Pen/step, with 2% FBS, Tet-system approved (Clontech, cat#: 631106) were then added to mix, transferred into a 50 ml conical tube (Falcon, cat#: 21008-918,) and spun at 1300 rpm for 5 min. Pelleted cells were then re-suspended/washed with 50 mL of 1X DPBS (Invitrogen, cat#: 14190-136) 2 times and 50 mL treatment medium twice. HepAD38 cells were then re-suspended with 10 mL of treatment medium, syringed and counted. Wells of 96-well clear bottom TC plate (Corning, cat#: 3904,) were seeded at 50.000 cells/well in 180 µL of treatment medium, and 20 µL of either 10% DMSO (Sigma, cat#: D4540) as controls or a 10X solution of test compounds in 10% DMSO in treatment media was added for a final compound concentration starting at 10 µM, and plates were incubated in 5% CO2 incubator at 37° C. for 5 days.
Subsequently viral load production was assayed by quantitative PCR (qPCR) of the HBV core sequence. PCR reaction mixture containing forward primers HBV-f 5′-CTGTGCCTTGGGTGGCTTT-3′ (IDT DNA), Reverse primers HBV-r 5′-[…]-3′ (IDT DNA), Fluorescent TaqMan^tm Probes HBV-probe 5′-FAM/AGCTCCAAA/ZEN/[…]/3IABkFQ-3′ (IDT DNA), 10 µL/well of PerfeCTa® qPCR ToughMix® (Quanta Biosciences, Cat#: 95114-05 K), and 6 µL/well of DEPC water (Alfa Aesar, cat#: J62087) was prepared. Four µL of supernatant was added to 16 µL of the reaction mixture in a qPCR plate (Applied Biosytems, Cat#: 4309849), sealed with a film (Applied Biosystems, Cat#: 4311971), centrifuged for a few seconds, and subsequently run on an Applied Biosystems VIIA7. The PCR mixture was incubated at 45° C. for 5 min, then 95° C. for 10 min, followed by 40 cycles of 10 seconds at 95° C. and 20 seconds at 60° C. Viral load was quantified against known HBV DNA standards by using ViiA™ 7 Software. Viral load in the supernatant from wells with treated cells were compared against viral load in supernatant from DMSO control wells (≥ 3 per plate). Cell viability assay was performed with CellTiter-Glo Luminescent Cell Viability Assay (Promega, cat#: G7573) with modification. Mixed appropriate amount of CellTiter-Glo (CTG) 1X DPBS in a 1:1 ratio, added 100 uL of the mixture to each well followed completely removal of all supernatant in each well without touching cell surface. Incubated the plate at room temperature for 10 min on an orbital shaker, and then read the plate with a plate reader (TECAN M1000 or Envision). EC50 or CC50 values were calculated through curve-fitting of the four-parameter nonlinear-logistic-regression model (GraphPad Prism or Dotmatics). CC50 values were all >10 µM.
As to `Cn1nc(C2CC3CC(O)(c4ccc(F)cc4)CC3C2)c(C(=O)Nc2ccc(F)c(C#N)c2)c1N` (stereo not drawn) [Example 9, 5-Amino-N-(3-cyano-4-fluorophenyl)-3-(5-(4-fluorophenyl)-5-hydroxyoctahydropentalen-2-yl)-1-methyl-1H-pyrazole-4-carboxamide], the EC50 is < 10 nM. On to `Cn1nc(C2CC3CC(O)(c4ccc(Oc5ccccc5)cc4)CC3C2)c(C(=O)Nc2ccc(F)c(Cl)c2)c1N` (stereo not drawn) [Example 10, 5-Amino-N-(3-chloro-4-fluorophenyl)-3-(5-hydroxy-5-(4-phenoxyphenyl)octahydropentalen-2-yl)-1-methyl-1H-pyrazole-4-carboxamide], for which the EC50 is < 10 nM. Turning to `Cn1nc(C2CC3CC(O)(c4cc(F)cc(F)c4)CC3C2)c(C(=O)Nc2ccc(F)c(Cl)c2)c1N` (stereo not drawn) [Example 11, 5-Amino-N-(3-chloro-4-fluorophenyl)-3-(5-(3,5-difluorophenyl)-5-hydroxyoctahydropentalen-2-yl)-1-methyl-1H-pyrazole-4-carboxamide], the EC50 was in the range of 10 to 50 nM. For the molecule `Cn1nc(C2CC3CC(O)(c4ccc(F)c(F)c4)CC3C2)c(C(=O)Nc2ccc(F)c(Cl)c2)c1N` (stereo not drawn) [Example 12, 5-Amino-N-(3-chloro-4-fluorophenyl)-3-(5-(3,4-difluorophenyl)-5-hydroxyoctahydropentalen-2-yl)-1-methyl-1H-pyrazole-4-carboxamide], the EC50 was in the range of 10 to 50 nM.

As to `Cc1cc(C2(O)CC3CC(c4nn(C)c(N)c4C(=O)Nc4ccc(F)c(Cl)c4)CC3C2)ccc1F` (stereo not drawn) [Example 13, 5-Amino-N-(3-chloro-4-fluorophenyl)-3-(5-(4-fluoro-3-methylphenyl)-5-hydroxyoctahydropentalen-2-yl)-1-methyl-1H-pyrazole-4-carboxamide], the EC50 lay within 10 to 50 nM. Take `Cn1nc(C2CC3CC(O)(c4ccccn4)CC3C2)c(C(=O)Nc2ccc(F)c(Cl)c2)c1N` (stereo not drawn) [Example 14, 5-Amino-N-(3-chloro-4-fluorophenyl)-3-(5-hydroxy-5-(pyridin-2-yl)octahydropentalen-2-yl)-1-methyl-1H-pyrazole-4-carboxamide]: the EC50 was < 10 nM. In the case of `Cn1nc(C2CC3CC(O)(c4cccnc4)CC3C2)c(C(=O)Nc2ccc(F)c(Cl)c2)c1N` (stereo not drawn) [Example 15, 5-Amino-N-(3-chloro-4-fluorophenyl)-3-(5-hydroxy-5-(pyridin-3-yl)octahydropentalen-2-yl)-1-methyl-1H-pyrazole-4-carboxamide], the EC50 was < 10 nM. In the case of `Cn1nc(C2CC3CC(O)(c4ccncc4)CC3C2)c(C(=O)Nc2ccc(F)c(Cl)c2)c1N` (stereo not drawn) [Example 16, 5-Amino-N-(3-chloro-4-fluorophenyl)-3-(5-hydroxy-5-(pyridin-4-yl)octahydropentalen-2-yl)-1-methyl-1H-pyrazole-4-carboxamide], the EC50 was < 10 nM.

As to `Cc1ccc(C2(O)CC3CC(c4nn(C)c(N)c4C(=O)Nc4ccc(F)c(Cl)c4)CC3C2)nc1` (stereo not drawn) [Example 17, 5-Amino-N-(3-chloro-4-fluorophenyl)-3-(5-hydroxy-5-(5-methylpyridin-2-yl)octahydropentalen-2-yl)-1-methyl-1H-pyrazole-4-carboxamide], the EC50 is < 10 nM. Consider `Cn1nc(C2CC3CC(O)(c4nccs4)CC3C2)c(C(=O)Nc2ccc(F)c(Cl)c2)c1N` (stereo not drawn) [Example 18, 5-Amino-N-(3-chloro-4-fluorophenyl)-3-(5-hydroxy-5-(thiazol-2-yl)octahydropentalen-2-yl)-1-methyl-1H-pyrazole-4-carboxamide], for which the EC50 was < 10 nM. The same measure for `Cn1ccnc1C1(O)CC2CC(c3nn(C)c(N)c3C(=O)Nc3ccc(F)c(Cl)c3)CC2C1` (stereo not drawn) [Example 19, 5-Amino-N-(3-chloro-4-fluorophenyl)-3-(5-hydroxy-5-(1-methyl-1H-imidazol-2-yl)octahydropentalen-2-yl)-1-methyl-1H-pyrazole-4-carboxamide]: < 10 nM; for `Cn1nc(C2CC3CC(O)(c4ncco4)CC3C2)c(C(=O)Nc2ccc(F)c(Cl)c2)c1N` (stereo not drawn) [Example 21, 5-Amino-N-(3-chloro-4-fluorophenyl)-3-(5-hydroxy-5-(oxazol-2-yl)octahydropentalen-2-yl)-1-methyl-1H-pyrazole-4-carboxamide]: < 10 nM; for `C#CC1(O)CC2CC(c3nn(C)c(N)c3C(=O)Nc3ccc(F)c(Cl)c3)CC2C1` (stereo not drawn) [Example 22, 5-Amino-N-(3-chloro-4-fluorophenyl)-3-(5-ethynyl-5-hydroxyoctahydropentalen-2-yl)-1-methyl-1H-pyrazole-4-carboxamide]: < 10 nM.

As for `Cn1cc(C2(O)CC3CC(c4nn(C)c(N)c4C(=O)Nc4ccc(F)c(Cl)c4)CC3C2)nn1` (stereo not drawn) [Example 23, 5-Amino-N-(3-chloro-4-fluorophenyl)-3-(5-hydroxy-5-(1-methyl-1H-1,2,3-triazol-4-yl)octahydropentalen-2-yl)-1-methyl-1H-pyrazole-4-carboxamide], the EC50 is < 10 nM.

`Cn1nc(C2CC3CC(O)(c4c(Br)nnn4C)CC3C2)c(C(=O)Nc2ccc(F)c(Cl)c2)c1N` (stereo not drawn) [Example 24, 5-Amino-3-(5-(4-bromo-1-methyl-1H-1,2,3-triazol-5-yl)-5-hydroxyoctahydropentalen-2-yl)-N-(3-chloro-4-fluorophenyl)-1-methyl-1H-pyrazole-4-carboxamide]: the EC50 was < 10 nM. Turning to `Cn1nncc1C1(O)CC2CC(c3nn(C)c(N)c3C(=O)Nc3ccc(F)c(Cl)c3)CC2C1` (stereo not drawn) [Example 25, 5-Amino-N-(3-chloro-4-fluorophenyl)-3-(5-hydroxy-5-(1-methyl-1H-1,2,3-triazol-5-yl)octahydropentalen-2-yl)-1-methyl-1H-pyrazole-4-carboxamide], the EC50 was < 10 nM. To `Cn1nccc1C1(O)CC2CC(c3nn(C)c(N)c3C(=O)Nc3ccc(F)c(Cl)c3)CC2C1` (stereo not drawn) [Example 26, 5-Amino-N-(3-chloro-4-fluorophenyl)-3-(5-hydroxy-5-(1-methyl-1H-pyrazol-5-yl)octahydropentalen-2-yl)-1-methyl-1H-pyrazole-4-carboxamide] belongs < 10 nM; to `Cn1nc(C2CC3CC(O)(c4c[nH]cn4)CC3C2)c(C(=O)Nc2ccc(F)c(Cl)c2)c1N` (stereo not drawn) [Example 27, 5-Amino-N-(3-chloro-4-fluorophenyl)-3-(5-hydroxy-5-(1H-imidazol-4-yl)octahydropentalen-2-yl)-1-methyl-1H-pyrazole-4-carboxamide], 10 to 50 nM. To `Cn1nc(C2CC3CC(O)(c4cn[nH]c4)CC3C2)c(C(=O)Nc2ccc(F)c(Cl)c2)c1N` (stereo not drawn) [Example 28, 5-Amino-N-(3-chloro-4-fluorophenyl)-3-(5-hydroxy-5-(1H-pyrazol-4-yl)octahydropentalen-2-yl)-1-methyl-1H-pyrazole-4-carboxamide] belongs 10 to 50 nM. `Cn1nc(C2CC3CC(F)(CC(F)F)CC3C2)c(C(=O)Nc2ccc(F)c(Cl)c2)c1N` (stereo not drawn) [Example 29, 5-Amino-N-(3-chloro-4-fluorophenyl)-3-(5-(2,2-difluoroethyl)-5-fluorooctahydropentalen-2-yl)-1-methyl-1H-pyrazole-4-carboxamide]: the EC50 fell in the range of 10 to 50 nM. Take `Cn1nc(C2CC3CC(O)(C(F)F)CC3C2)c(C(=O)Nc2ccc(F)c(Cl)c2)c1N` (stereo not drawn) [Example 30, 5-Amino-N-(3-chloro-4-fluorophenyl)-3-(5-(difluoromethyl)-5-hydroxyoctahydropentalen-2-yl)-1-methyl-1H-pyrazole-4-carboxamide]: the EC50 lay within 10 to 50 nM.
